Each structure is given as a SMILES string. Converted amounts (≈) assume the structure as drawn.

Holding throughout (experiment): Bacterial growth minimal inhibitory concentration (microdilution, cation-adjusted Mueller-Hinton Broth)
Format in all cases: cell-based

One assay concerns K. pneumoniae A-651. The settings on record: Klebsiella pneumoniae, A651; multiply-resistant strain (in particular quinolone-resistant); read-out: MIC for K. Pneumoniae A-651. How it is done: (§1) Minimal Inhibitory Concentrations (MICs; mg/L) were determined in cation-adjusted Mueller-Hinton Broth by a microdilution method following the description given in “Methods for Dilution Antimicrobial Susceptibility Tests for Bacteria that Grow Aerobically”, Approved standard, 7th ed., a Clinical and Laboratory Standards Institute (CLSI) Document M7-A7, Wayne, Pa., USA (2006).
(§2) All Example compounds were tested against several Gram-positive and Gram-negative bacteria. […] K. pneumoniae A-651 is a multiply-resistant strain (in particular quinolone-resistant), while E. coli ATCC25922 and P. aeruginosa ATCC27853 are quinolone-sensitive strains.

The next assay relates to E. coli ATCC25922. Particulars: Escherichia coli, ATCC25922; quinolone-sensitive strain; read-out: MIC for E. coli ATCC25922. How it is done: as §1, §2
A further assay relates to P. aeruginosa ATCC27853. The settings on record: Pseudomonas aeruginosa, ATCC27853, quinolone-sensitive strain; read-out: MIC for P. aeruginosa ATCC27853. On the procedure:
as §1, §2

With `C[C@@](CCN1Cc2cc(C#CC#CC3CN(C4COC4)C3)cn2C1=O)(C(=O)NO)S(C)(=O)=O` [Example 83, (R)-N-hydroxy-2-methyl-2-(methylsulfonyl)-4-(6-((1-(oxetan-3-yl)azetidin-3-yl)buta-1,3-diyn-1-yl)-3-oxo-1H-pyrrolo[1,2-c]imidazol-2(3H)-yl)butanamide], the MIC – broadly, the lowest concentration found to suppress growth – in the assay on K. pneumoniae A-651 stood at 0.5 µg/mL (≈ 1.05 µM); with E. coli ATCC25922, 0.5 µg/mL (≈ 1.05 µM); in the assay on P. aeruginosa ATCC27853 it was 1 µg/mL (≈ 2.11 µM).

For `C[C@@](CCN1Cc2cc(C#Cc3ccc(C4(CN)CC4)cc3)cn2C1=O)(C(=O)NO)S(C)(=O)=O.O=CO` [Example 8, (R)-4-(6-((4-(1-(aminomethyl)cyclopropyl)phenyl)ethynyl)-3-oxo-1H-pyrrolo[1,2-c]imidazol-2(3H)-yl)-N-hydroxy-2-methyl-2-(methylsulfonyl)butanamide formate], the MIC with K. pneumoniae A-651 turned out to be 8 µg/mL; in the assay on E. coli ATCC25922 it was 8 µg/mL; with P. aeruginosa ATCC27853 it was 4 µg/mL.

For the compound `COc1ccc(-c2cc3n(c2)C(=O)N(CC[C@](C)(C(=O)NO)S(C)(=O)=O)C3)c(F)c1F` [Example 55, (R)-4-(6-(2,3-difluoro-4-methoxyphenyl)-3-oxo-1H-pyrrolo[1,2-c]imidazol-2(3H)-yl)-N-hydroxy-2-methyl-2-(methylsulfonyl)butanamide], the MIC is 1 µg/mL (≈ 2.19 µM) in the assay on K. pneumoniae A-651, 0.125 µg/mL (≈ 0.273 µM) in the assay on E. coli ATCC25922 and 4 µg/mL (≈ 8.74 µM) with P. aeruginosa ATCC27853.

Turning to `C[C@@](CCN1Cc2cc(C#Cc3ccc([C@@H](O)CO)cc3)cn2C1=O)(C(=O)NO)S(C)(=O)=O` [Example 17, (R)-4-(6-((4-((R)-1,2-dihydroxyethyl)phenyl)ethynyl)-3-oxo-1H-pyrrolo[1,2-c]imidazol-2(3H)-yl)-N-hydroxy-2-methyl-2-(methylsulfonyl)butanamide], the MIC in the assay on K. pneumoniae A-651, in the assay on E. coli ATCC25922 and in the assay on P. aeruginosa ATCC27853 was 1 µg/mL (≈ 2.1 µM) throughout.

On to `CCOc1ccc(-c2cc3n(c2)C(=O)N(CC[C@](C)(C(=O)NO)S(C)(=O)=O)C3)c(Cl)c1` [Example 49, (R)-4-(6-(2-chloro-4-ethoxyphenyl)-3-oxo-1H-pyrrolo[1,2-c]imidazol-2(3H)-yl)-N-hydroxy-2-methyl-2-(methylsulfonyl)butanamide], for which the MIC was 0.125 µg/mL (≈ 0.266 µM) in the assay on K. pneumoniae A-651, not above 0.063 µg/mL with E. coli ATCC25922 and 4 µg/mL (≈ 8.51 µM) with P. aeruginosa ATCC27853.

Consider `C[C@@](CCN1Cc2cc(C#CC#CC3(COC(N)=O)CC3)cn2C1=O)(C(=O)NO)S(C)(=O)=O` [Example 35, (R)-(1-((2-(4-(hydroxyamino)-3-methyl-3-(methylsulfonyl)-4-oxobutyl)-3-oxo-2,3-dihydro-1H-pyrrolo[1,2-c]imidazol-6-yl)buta-1,3-diyn-1-yl)cyclopropyl)methyl carbamate], for which the figures for the MIC in the assay with K. pneumoniae A-651, in the assay with E. coli ATCC25922 and in the assay on P. aeruginosa ATCC27853 were 0.5 µg/mL (≈ 1.05 µM), 0.25 µg/mL (≈ 0.525 µM) and 2 µg/mL (≈ 4.2 µM), respectively.

With `C[C@@](CCN1Cc2cc(C#Cc3ccc(CCO)cc3)cn2C1=O)(C(=O)NO)S(C)(=O)=O` [Example 16, (R)-N-hydroxy-4-(6-((4-(2-hydroxyethyl)phenyl)ethynyl)-3-oxo-1H-pyrrolo[1,2-c]imidazol-2(3H)-yl)-2-methyl-2-(methylsulfonyl)butanamide], the MIC with K. pneumoniae A-651 is 0.25 µg/mL (≈ 0.544 µM); in the assay on E. coli ATCC25922, not above 0.063 µg/mL; in the assay with P. aeruginosa ATCC27853, 0.5 µg/mL (≈ 1.09 µM).

With `C[C@@](CCN1Cc2cc(C#CC#CC(CO)C3CCC3)cn2C1=O)(C(=O)NO)S(C)(=O)=O` (mixture of isomers) [Example 60, (2R)-4-(6-((5RS)-5-cyclobutyl-6-hydroxyhexa-1,3-diyn-1-yl)-3-oxo-1H-pyrrolo[1,2-c]imidazol-2(3H)-yl)-N-hydroxy-2-methyl-2-(methylsulfonyl)butanamide], the MIC was 1 µg/mL in the assay on K. pneumoniae A-651, 0.5 µg/mL with E. coli ATCC25922 and 4 µg/mL in the assay on P. aeruginosa ATCC27853.

For `CC(CCN1Cc2cc(-c3ccc(C4(O)COC4)cc3)cn2C1=O)(C(=O)NO)S(C)(=O)=O` (racemic) [RE1, (RS)—N-hydroxy-4-(6-(4-(3-hydroxyoxetan-3-yl)phenyl)-3-oxo-1H-pyrrolo[1,2-c]imidazol-2(3H)-yl)-2-methyl-2-(methylsulfonyl)butanamide], the MIC came out at 16 µg/mL (≈ 34.5 µM) in the assay with K. pneumoniae A-651, 8 µg/mL (≈ 17.3 µM) with E. coli ATCC25922 and 16 µg/mL (≈ 34.5 µM) in the assay on P. aeruginosa ATCC27853.

Turning to `COc1ccc(-c2cc3n(c2)C(=O)N(CC[C@](C)(C(=O)NO)S(C)(=O)=O)C3)c(Cl)c1` [Example 52, (R)-4-(6-(2-chloro-4-methoxyphenyl)-3-oxo-1H-pyrrolo[1,2-c]imidazol-2(3H)-yl)-N-hydroxy-2-methyl-2-(methylsulfonyl)butanamide], the results for the MIC in the assay with K. pneumoniae A-651, in the assay on E. coli ATCC25922 and in the assay on P. aeruginosa ATCC27853 were not above 0.063 µg/mL, not above 0.063 µg/mL and 2 µg/mL (≈ 4.39 µM), respectively.

As to `C[C@@](CCN1Cc2cc(C#Cc3ccc(C4(O)COC4)cc3)cn2C1=O)(C(=O)NO)S(C)(=O)=O` [Example 2, (R)-N-hydroxy-4-(6-((4-(3-hydroxyoxetan-3-yl)phenyl)ethynyl)-3-oxo-1H-pyrrolo[1,2-c]imidazol-2(3H)-yl)-2-methyl-2-(methylsulfonyl)butanamide], the MIC in the assay with K. pneumoniae A-651 turned out to be 1 µg/mL (≈ 2.05 µM); with E. coli ATCC25922, 0.5 µg/mL (≈ 1.03 µM); in the assay on P. aeruginosa ATCC27853 it was 1 µg/mL (≈ 2.05 µM).

Consider `C[C@@](CCN1Cc2cc(C#Cc3ccc(CO)cc3)cn2C1=O)(C(=O)NO)S(C)(=O)=O` [Example 3, (R)-N-hydroxy-4-(6-((4-(hydroxymethyl)phenyl)ethynyl)-3-oxo-1H-pyrrolo[1,2-c]imidazol-2(3H)-yl)-2-methyl-2-(methylsulfonyl)butanamide], for which the MIC with K. pneumoniae A-651 was found to be 0.5 µg/mL (≈ 1.12 µM); in the assay with E. coli ATCC25922 it was 0.125 µg/mL (≈ 0.281 µM); with P. aeruginosa ATCC27853 it was 2 µg/mL (≈ 4.49 µM).

On to `C[C@@](CCN1Cc2cc(C#Cc3ccc(C(F)(F)CO)cc3)cn2C1=O)(C(=O)NO)S(C)(=O)=O` [Example 44, (R)-4-(6-((4-(1,1-difluoro-2-hydroxyethyl)phenyl)ethynyl)-3-oxo-1H-pyrrolo[1,2-c]imidazol-2(3H)-yl)-N-hydroxy-2-methyl-2-(methylsulfonyl)butanamide], for which the MIC is 0.25 µg/mL (≈ 0.505 µM) with K. pneumoniae A-651, not above 0.063 µg/mL with E. coli ATCC25922 and 1 µg/mL (≈ 2.02 µM) in the assay with P. aeruginosa ATCC27853.

For `CC(C)(O)c1ccc(C#Cc2cc3n(c2)C(=O)N(CC[C@](C)(C(=O)NO)S(C)(=O)=O)C3)cc1` [Example 10, (R)-N-hydroxy-4-(6-((4-(2-hydroxypropan-2-yl)phenyl)ethynyl)-3-oxo-1H-pyrrolo[1,2-c]imidazol-2(3H)-yl)-2-methyl-2-(methylsulfonyl)butanamide], the values for the MIC in the assay with K. pneumoniae A-651, with E. coli ATCC25922 and with P. aeruginosa ATCC27853 were 0.25 µg/mL (≈ 0.528 µM), 0.25 µg/mL (≈ 0.528 µM) and 0.5 µg/mL (≈ 1.06 µM), respectively.

For the compound `CC(CCN1Cc2cc(-c3ccc(OCCO)cc3)cn2C1=O)(C(=O)NO)S(C)(=O)=O` (racemic) [RE7, (RS)—N-hydroxy-4-(6-(4-(2-hydroxyethoxy)phenyl)-3-oxo-1H-pyrrolo[1,2-c]imidazol-2(3H)-yl)-2-methyl-2-(methylsulfonyl)butanamide], the MIC in the assay on K. pneumoniae A-651 amounted to 8 µg/mL (≈ 17.7 µM); with E. coli ATCC25922 it was 4 µg/mL (≈ 8.86 µM); in the assay on P. aeruginosa ATCC27853 it was 8 µg/mL (≈ 17.7 µM).

Turning to `C[C@@](CCN1Cc2cc(C#CC#C[C@H](O)CO)cn2C1=O)(C(=O)NO)S(C)(=O)=O` [Example 11, (R)-4-(6-((S)-5,6-dihydroxyhexa-1,3-diyn-1-yl)-3-oxo-1H-pyrrolo[1,2-c]imidazol-2(3H)-yl)-N-hydroxy-2-methyl-2-(methylsulfonyl)butanamide], the figures for the MIC with K. pneumoniae A-651, in the assay on E. coli ATCC25922 and in the assay on P. aeruginosa ATCC27853 were 16 µg/mL (≈ 37.8 µM), 8 µg/mL (≈ 18.9 µM) and 8 µg/mL (≈ 18.9 µM), respectively.

As to `C[C@@]1(C#CC#Cc2cc3n(c2)C(=O)N(CC[C@](C)(C(=O)NO)S(C)(=O)=O)C3)C[C@H]1CO` [Example 36, (R)-N-hydroxy-4-(6-(((1R,2R)-2-(hydroxymethyl)-1-methylcyclopropyl)buta-1,3-diyn-1-yl)-3-oxo-1H-pyrrolo[1,2-c]imidazol-2(3H)-yl)-2-methyl-2-(methylsulfonyl)butanamide], the MIC with K. pneumoniae A-651 was determined as 0.25 µg/mL (≈ 0.559 µM); in the assay on E. coli ATCC25922, 0.125 µg/mL (≈ 0.279 µM); in the assay with P. aeruginosa ATCC27853, 0.5 µg/mL (≈ 1.12 µM).

In the case of `Cc1ccc(-c2cc3n(c2)C(=O)N(CCC(C)(C(=O)NO)S(C)(=O)=O)C3)c(F)c1` (racemic) [RE9, (RS)-4-(6-(2-fluoro-4-methylphenyl)-3-oxo-1H-pyrrolo[1,2-c]imidazol-2(3H)-yl)-N-hydroxy-2-methyl-2-(methylsulfonyl)butanamide], the MIC stood at 2 µg/mL (≈ 4.72 µM) in the assay with K. pneumoniae A-651, 0.125 µg/mL (≈ 0.295 µM) in the assay with E. coli ATCC25922 and 0.5 µg/mL (≈ 1.18 µM) with P. aeruginosa ATCC27853.

With `C[C@@](CCN1Cc2cc(C#Cc3ccc([C@@H]4C[C@H]4CO)cc3)cn2C1=O)(C(=O)NO)S(C)(=O)=O` [Example 5, (R)-N-hydroxy-4-(6-((4-((1R,2R)-2-(hydroxymethyl)cyclopropyl)phenyl)ethynyl)-3-oxo-1H-pyrrolo[1,2-c]imidazol-2(3H)-yl)-2-methyl-2-(methylsulfonyl)butanamide], the minimal inhibitory concentration (MIC) is 0.125 µg/mL (≈ 0.257 µM) in the assay with K. pneumoniae A-651, not above 0.063 µg/mL with E. coli ATCC25922 and 0.5 µg/mL (≈ 1.03 µM) in the assay with P. aeruginosa ATCC27853.

Regarding `C[C@@](CCN1Cc2cc(C#Cc3ccc(N4CCC(N)CC4)cc3)cn2C1=O)(C(=O)NO)S(C)(=O)=O` [Example 81, (R)-4-(6-((4-(4-aminopiperidin-1-yl)phenyl)ethynyl)-3-oxo-1H-pyrrolo[1,2-c]imidazol-2(3H)-yl)-N-hydroxy-2-methyl-2-(methylsulfonyl)butanamide], the MIC in the assay with K. pneumoniae A-651 was found to be 16 µg/mL (≈ 31.2 µM); with E. coli ATCC25922 it was 8 µg/mL (≈ 15.6 µM); with P. aeruginosa ATCC27853, 2 µg/mL (≈ 3.89 µM).

In the case of `C[C@@](CCN1Cc2cc(C#CC#CCNS(C)(=O)=O)cn2C1=O)(C(=O)NO)S(C)(=O)=O` [Example 58, (R)-N-hydroxy-2-methyl-4-(6-(5-(methylsulfonamido)penta-1,3-diyn-1-yl)-3-oxo-1H-pyrrolo[1,2-c]imidazol-2(3H)-yl)-2-(methylsulfonyl)butanamide], the results for the MIC in the assay with K. pneumoniae A-651, in the assay on E. coli ATCC25922 and in the assay with P. aeruginosa ATCC27853 were 8 µg/mL (≈ 17 µM), 4 µg/mL (≈ 8.5 µM) and 4 µg/mL (≈ 8.5 µM), respectively.
